Patent US11568956B2, “Methods for identifying inhibitors of amyloid protein aggregation” (Treventis Corporation, priority 2008, dated 2023)
pIC50: −log10 of the molar value. Counter-ions that a name gives are not always drawn. Like-named read-outs stand apart in the source and are kept apart here. One block for each molecule: values may come before it.

Experiments:
Aβ 1-40 = biological target: T1, Aβ 1-40 (Homo sapiens, UniProt P05067); test: ThT aggregation assay of Aβ 1-40; assay type: biochemical
T1 construct: ThT aggregation assays of Aβ 1-40 and alpha synuclein
Method: The anti-amyloid activity of these compounds was evaluated by ThT aggregation assays of Aβ 1-40 and alpha synuclein, as set forth below. The column “A-Syn” below is a functional ThT aggregation assay of alpha synuclein.

Aβ = Aβ (Homo sapiens, UniProt P05067); conditions: read-out: Expt (IC50), cited from earlier work; for IC50: unit not in the table, μM, Masuda test set
Aβ, sequence (P05067 672-711 limits assumed): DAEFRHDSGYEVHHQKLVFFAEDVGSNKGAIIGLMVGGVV

T1 sequence (P05067 672-711 limits assumed): as above

IC50 (Aβ 1-40): > 20 µM
Molecule: CC1=NNC(=O)C1CC(=O)N/N=C/c1cccc(OCc2ccccc2)c1 (centres unmarked)

IC50 (Aβ 1-40): > 20 µM
Molecule: O=C(CNC(=O)c1ccccc1)N/N=C/c1c[nH]nc1-c1ccccc1

IC50 (Aβ 1-40): > 20 µM
Molecule: CC(C)(O)C#Cc1ccc(C(=O)N2CCN(c3ncccn3)CC2)cc1

IC50 (Aβ 1-40): > 20 µM
Molecule: CCOC(=O)c1c(NC(=O)c2cccc([N+](=O)[O-])c2C)sc2c1CCC2

IC50 (Aβ 1-40): > 20 µM
Molecule: Cc1ccc(N(C)C(=O)C2CC(O)CN2C(=O)OCC(C)C)cc1C (centres unmarked)

Molecule: Cc1sc(/C=N/NC(=O)c2cccc([N+](=O)[O-])c2)cc1[N+](=O)[O-]
IC50 (Aβ 1-40): > 20 µM

Aβ - ThT (IC50/μM) (Aβ 1-40): INACTIVE
Molecule: O=[N+]([O-])c1ccc(N2CCCCC2)cc1Nc1ccccc1

Molecule: O=C(c1ccc(O)cc1O)c1ccc(O)cc1O [2,2′,4,4′-tetrahydroxybenzaphenone]
IC50 (Aβ): > 40 µM

Molecule: O=C(c1ccccc1O)c1ccccc1O [2,2′-dihydroxybenzophenone]
IC50 (Aβ): > 40 µM

Molecule: O=C(c1ccc(O)cc1O)c1ccc(O)c(O)c1O [2,3,4,2′,4′-pentahydroxybenzophenone]
IC50 (Aβ): 2.8 µM

Molecule: O=C(c1ccccc1)c1ccc(O)c(O)c1O [2,3,4-trihydroxybenzophenone]
IC50 (Aβ): 3.1 µM

Molecule: Cc1ccc2nc(-c3ccc(N)cc3)sc2c1 [2-(4-aminophenyl)-6-methylbenzothiazole]
IC50 (Aβ): 2 µM

Molecule: Cc1ccc2nc(-c3ccc(N(C)C)cc3)sc2c1 [2-[4-(dimethylamino)phenyl]-6-methylbenzothiazole]
IC50 (Aβ): 2 µM

Molecule: CCCN1C(=CC=CC=Cc2sc3ccccc3[n+]2CCC)Sc2ccccc21 [3,3′-dipropyl thiodicarbocyanine iodine]
pIC50 (Aβ): 6.52

Molecule: O=C(c1ccc(O)cc1)c1ccc(O)cc1 [4,4′-dihydroxybenzophenone]
IC50 (Aβ): > 40 µM

Molecule: O=C1NC(=O)c2cc(Nc3ccccc3)c(Nc3ccccc3)cc21 [4,5-dianilinophthalimide]
IC50 (Aβ): 2.9 µM

Molecule: O=c1cc(-c2ccc(O)cc2)oc2cc(O)cc(O)c12 [Apigenin]
IC50 (Aβ): > 40 µM

Molecule: O=C(O)c1cc(/C=C/c2ccc(/C=C/c3ccc(O)c(C(=O)O)c3)c(Br)c2)ccc1O [BSB]
IC50 (Aβ): 6.4 µM

Molecule: Nc1c(/N=N/c2ccc(-c3ccc(/N=N/c4cc(S(=O)(=O)O)c5ccccc5c4N)cc3)cc2)cc(S(=O)(=O)O)c2ccccc12 [Congo red]
IC50 (Aβ): 0.9 µM

Molecule: O=C(O)c1cc(/C=C/c2ccc(/C=C/c3ccc(O)c(C(=O)O)c3)c(F)c2)ccc1O [FSB]
IC50 (Aβ): 1.9 µM

Molecule: O=S(=O)(O)c1ccc2c(N=Nc3ccc(N=Nc4ccccc4)cc3)c(O)c(S(=O)(=O)O)cc2c1 [Ponceau SS]
IC50 (Aβ): 1.2 µM

Molecule: CC(=O)c1ccc2c(c1)N(CCCN(C)C)c1ccccc1S2 [acetopromazine maleate salt]
IC50 (Aβ): > 40 µM

Molecule: C[C@@H]1[C@H](O)[C@@H](C)/C=C/C=C/C=C/C=C/C=C/C=C/C=C/[C@H](O[C@@H]2O[C@H](C)[C@@H](O)[C@H](N)[C@@H]2O)C[C@@H]2O[C@](O)(C[C@@H](O)C[C@@H](O)[C@H](O)CC[C@@H](O)C[C@@H](O)CC(=O)O[C@H]1C)C[C@H](O)[C@H]2C(=O)O [amphotericin B]
IC50 (Aβ): 2.2 µM

Molecule: C[C@H]1[C@H](C)CC[C@]2(C(=O)O)CC[C@]3(C)C(=CC[C@@H]4[C@@]5(C)C[C@@H](O)[C@H](O)[C@@](C)(CO)[C@@H]5CC[C@]43C)[C@H]12 [asiatic acid]
IC50 (Aβ): > 40 µM

Molecule: CN(C)c1ccc2nc3ccc(N)cc3[s+]c2c1 [azure A]
IC50 (Aβ): 0.4 µM

Molecule: CCN(CCO)c1ccc(/N=N/c2sc3cc(OC)ccc3[n+]2C)cc1 [basic blue 41]
IC50 (Aβ): 1.4 µM

Molecule: Nc1ccc(N=Nc2ccc(-c3ccc(N=Nc4c(S(=O)(=O)O)cc5cc(S(=O)(=O)O)c(N=Nc6ccccc6)c(O)c5c4N)cc3)cc2)c(N)c1 [chlorazol black E]
IC50 (Aβ): 0.3 µM

Molecule: O=C(/C=C/c1ccc(O)c(O)c1)O[C@@H]1C[C@](O)(C(=O)O)C[C@@H](O)[C@H]1O [chlorogenic acid]
IC50 (Aβ): > 40 µM

Molecule: CN(C)CCCN1c2ccccc2Sc2ccc(Cl)cc21 [chlorpromazine hydrochloride]
IC50 (Aβ): > 40 µM

Molecule: Oc1cc(O)c2cc(O)c(-c3ccc(O)c(O)c3)[o+]c2c1 [cyanidin]
IC50 (Aβ): 4 µM

Molecule: O=c1c(-c2ccc(O)cc2)coc2cc(O)ccc12 [daidzein]
IC50 (Aβ): > 40 µM

Molecule: COc1cccc2c1C(=O)c1c(O)c3c(c(O)c1C2=O)C[C@@](O)(C(C)=O)C[C@@H]3O[C@H]1C[C@H](N)[C@H](O)[C@H](C)O1 [daunorubicin hydrochloride]
IC50 (Aβ): 1.4 µM

Molecule: Oc1cc(O)c2cc(O)c(-c3cc(O)c(O)c(O)c3)[o+]c2c1 [delphinidin]
IC50 (Aβ): 3 µM

Molecule: NCCc1ccc(O)c(O)c1 [dopamine chloride]
pIC50 (Aβ): 4.54

Molecule: O=C(O[C@@H]1Cc2c(O)cc(O)cc2O[C@@H]1c1ccc(O)c(O)c1)c1cc(O)c(O)c(O)c1 [epicatechin 3-gallate]
IC50 (Aβ): 3 µM

Molecule: Oc1cc(O)c2c(c1)O[C@H](c1ccc(O)c(O)c1)[C@H](O)C2 [epicatechin]
IC50 (Aβ): > 40 µM

Molecule: O=C(O[C@@H]1Cc2c(O)cc(O)cc2O[C@@H]1c1cc(O)c(O)c(O)c1)c1cc(O)c(O)c(O)c1 [epigallocatechin gallate]
IC50 (Aβ): 2 µM

Molecule: Oc1cc(O)c2c(c1)O[C@H](c1cc(O)c(O)c(O)c1)[C@H](O)C2 [epigallocatechin]
IC50 (Aβ): 7 µM

Molecule: O=C(c1cc(O)c(O)c(O)c1)c1ccc(O)c(O)c1O [exifone]
IC50 (Aβ): 0.7 µM

Molecule: CCCCC[C@@H](O)[C@H]1C(=O)O[C@H](C)[C@@H](O)/C=C/C=C/C=C/C=C/C=C(\C)[C@@H](O)C[C@H](O)C[C@H](O)C[C@H](O)C[C@H](O)C[C@H](O)C[C@@H]1O [filipin III]
IC50 (Aβ): 14.6 µM

Molecule: Oc1cc(O)c2c(c1)O[C@H](c1cc(O)c(O)c(O)c1)[C@@H](O)C2 [gallocatechin]
IC50 (Aβ): 7 µM

Molecule: CCCCC[C@H](O)CC(=O)CCc1ccc(O)c(OC)c1 [gingerol]
IC50 (Aβ): 25 µM

Molecule: C[C@@H]1C(=O)O[C@H]2C[C@@]34[C@H]5C[C@@H](C(C)(C)C)[C@]36[C@@H](OC(=O)[C@@H]6O)O[C@@]4(C(=O)O5)[C@]21O [ginkgolide A]
IC50 (Aβ): > 40 µM

Molecule: CC1C(=O)OC2C(O)C34C5CC(C(C)(C)C)C36C(OC(=O)C6O)OC4(C(=O)O5)C12O (centres unmarked) [ginkgolide B]
IC50 (Aβ): 11 µM

Molecule: O=c1c(O)c(-c2ccc(O)c(O)c2)oc2c(O)c(O)cc(O)c12 [gossypetin]
IC50 (Aβ): 1.3 µM

Molecule: O=c1cc(-c2ccc(Oc3c(O)cc4oc(-c5ccc(O)cc5)cc(=O)c4c3O)cc2)oc2cc(O)cc(O)c12 [hinokiflavone]
IC50 (Aβ): 5 µM

Molecule: Cc1cc(O)c2c(=O)c3c(O)cc(O)c4c5c(O)cc(O)c6c(=O)c7c(O)cc(C)c8c1c2c(c34)c(c78)c65 [hypericin]
IC50 (Aβ): 0.9 µM

Molecule: O=c1c(O)c(-c2ccc(O)cc2)oc2cc(O)cc(O)c12 [kaempferol]
IC50 (Aβ): 8 µM

Molecule: O=c1cc2oc3cc(O)c(-c4ccc(O)cc4O)cc3nc-2cc1-c1ccc(O)cc1O [lacmoid]
IC50 (Aβ): 1.4 µM

Molecule: C[C@H](CCC(=O)NCCS(=O)(=O)O)[C@H]1CC[C@H]2[C@@H]3[C@H](O)C[C@@H]4C[C@H](O)CC[C@]4(C)[C@H]3CC[C@]12C [laurochenodeoxycholic acid]
IC50 (Aβ): > 40 µM

Molecule: O=c1cc(-c2ccc(O)c(O)c2)oc2cc(O)cc(O)c12 [luteolin]
IC50 (Aβ): 3 µM

Molecule: C=CCc1ccc(O)c(-c2cc(CC=C)ccc2O)c1 [magnolol]
IC50 (Aβ): > 40 µM

Molecule: CN(C)c1ccc(N=Nc2ccccc2)cc1 [methyl yellow]
IC50 (Aβ): 1.5 µM

Molecule: CN(C)c1ccc2nc3ccc(=[N+](C)C)cc-3sc2c1 [methylene blue]
IC50 (Aβ): 2.3 µM

Molecule: O=C1C[C@@H](c2ccc(O)cc2)Oc2cc(O)cc(O)c21 [naringenin]
IC50 (Aβ): 25 µM

Molecule: OCCN1CCN(CCCN2c3ccccc3Sc3ccc(Cl)cc32)CC1 [perphenazine]
IC50 (Aβ): > 40 µM

Molecule: Oc1cc(O)c2c(c1)O[C@H](c1ccc(O)c(O)c1)[C@H](O)[C@H]2c1c(O)cc(O)c2c1O[C@H](c1ccc(O)c(O)c1)[C@@H](O)C2 [procyanidin B1]
IC50 (Aβ): 14 µM

Molecule: Oc1cc(O)c2c(c1)O[C@H](c1ccc(O)c(O)c1)[C@H](O)[C@H]2c1c(O)cc(O)c2c1O[C@H](c1ccc(O)c(O)c1)[C@H](O)C2 [procyanidin B2]
IC50 (Aβ): > 40 µM

Molecule: CN(C)CCCN1c2ccccc2Sc2ccccc21 [promazine hydrochloride]
IC50 (Aβ): > 40 µM

Molecule: CCC(=O)c1ccc2c(c1)N(CCCN(C)C)c1ccccc1S2 [propionylpromazine hydrochloride]
IC50 (Aβ): > 40 µM

Molecule: O=c1c(O)c(-c2ccc(O)c(O)c2)oc2cc(O)cc(O)c12 [quercetin]
IC50 (Aβ): 5 µM

Molecule: CCN(CC)CCCC(C)Nc1c2ccc(Cl)cc2nc2ccc(OC)cc12 (centres unmarked) [quinacrine]
IC50 (Aβ): 8.4 µM

Molecule: CO[C@H]1/C=C/O[C@@]2(C)Oc3c(C)c(O)c4c(O)c(c(/C=N/N5CCN(C)CC5)c(O)c4c3C2=O)NC(=O)/C(C)=C\C=C\[C@H](C)[C@H](O)[C@@H](C)[C@@H](O)[C@@H](C)[C@H](OC(C)=O)[C@@H]1C [rifampicin]
IC50 (Aβ): 4.9 µM

Molecule: O=C(/C=C/c1ccc(O)c(O)c1)O[C@H](Cc1ccc(O)c(O)c1)C(=O)O [rosmarinic acid]
IC50 (Aβ): 12 µM

Molecule: C[C@@H]1O[C@@H](OC[C@H]2O[C@@H](Oc3c(-c4ccc(O)c(O)c4)oc4cc(O)cc(O)c4c3=O)[C@H](O)[C@@H](O)[C@@H]2O)[C@H](O)[C@H](O)[C@H]1O [rutin]
IC50 (Aβ): 32 µM

Molecule: c1cc2c(cc1[C@H]1OC[C@H]3[C@@H]1CO[C@@H]3c1ccc3c(c1)OCO3)OCO2 [sesamin]
IC50 (Aβ): > 40 µM

Molecule: C[C@H](CCC(=O)NCCS(=O)(=O)O)[C@H]1CC[C@H]2[C@@H]3CC[C@@H]4C[C@H](O)CC[C@]4(C)[C@H]3CC[C@]12C [taurolithocholic acid]
IC50 (Aβ): > 40 µM

Molecule: C[C@H](CCC(=O)NCCS(=O)(=O)O)[C@H]1CC[C@H]2[C@@H]3CC[C@@H]4C[C@H](OS(=O)(=O)O)CC[C@]4(C)[C@H]3CC[C@]12C [taurolithocholic aicd 3-sulfate]
IC50 (Aβ): > 40 µM

Molecule: C[C@H](CCC(=O)NCCS(=O)(=O)O)[C@H]1CC[C@H]2[C@@H]3[C@@H](O)C[C@@H]4C[C@H](O)CC[C@]4(C)[C@H]3CC[C@]12C [tauroursodeoxycholic acid]
IC50 (Aβ): > 40 µM

Molecule: ginkgolide C
IC50 (Aβ): > 40 µM

Molecule: phthalocyanine tetrasulfonate
IC50 (Aβ): 3.2 µM

Molecule: taurohydroxycholic acid
IC50 (Aβ): > 40 µM

Molecule: theaflavone
IC50 (Aβ): 2 µM

Molecule: tocopherol
IC50 (Aβ): > 40 µM
